The values below come from patent US9289430B2, “Compounds and methods for inhibiting phosphate transport” (Ardelyx, Inc., priority 2010, dated 2016).

A word on the AUC: it is concentration integrated over time. Read a low AUC as low exposure. In general, Cmax refers to the highest concentration seen after dosing.

One data set addresses T1, human NaP2b (SLC34A2) (Homo sapiens, UniProt O95436).
T1 construct: host or cells: HEK293
T1 sequence (O95436 1-690): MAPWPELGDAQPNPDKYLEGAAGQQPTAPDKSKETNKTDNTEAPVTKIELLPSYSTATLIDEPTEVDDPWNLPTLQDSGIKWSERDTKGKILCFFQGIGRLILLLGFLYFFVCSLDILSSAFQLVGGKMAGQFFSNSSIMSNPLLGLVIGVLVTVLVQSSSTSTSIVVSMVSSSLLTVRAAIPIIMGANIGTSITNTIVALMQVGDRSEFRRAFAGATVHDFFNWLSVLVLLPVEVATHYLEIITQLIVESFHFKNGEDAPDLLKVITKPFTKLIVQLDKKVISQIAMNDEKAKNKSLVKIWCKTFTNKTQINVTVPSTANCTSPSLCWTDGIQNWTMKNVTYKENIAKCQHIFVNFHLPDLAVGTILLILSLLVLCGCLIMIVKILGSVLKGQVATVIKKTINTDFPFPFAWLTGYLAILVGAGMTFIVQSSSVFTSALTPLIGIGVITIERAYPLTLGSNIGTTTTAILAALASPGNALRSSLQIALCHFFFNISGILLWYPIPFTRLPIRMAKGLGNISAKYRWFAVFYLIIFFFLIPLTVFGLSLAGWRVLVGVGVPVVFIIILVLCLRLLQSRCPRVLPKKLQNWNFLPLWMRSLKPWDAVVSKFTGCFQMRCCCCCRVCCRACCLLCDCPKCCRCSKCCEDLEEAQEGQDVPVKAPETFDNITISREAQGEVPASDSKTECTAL
The data set is described as follows: NaP2b-mediated Pi transport: 33P phosphate uptake into transfected HEK293 cells. The format is cell-based. The following applies: human protein with threonine inserted after residue 37 and N39D, 100 uM KH2PO4, read-out: pIC50 range for human Nap2b (converted). The procedure:
(§1) Materials. HEK293 cells were obtained from the American Type Culture collection and propagated per their instructions. Expression clones for rat and human NaP2b (SLC34A2) were obtained from Open Biosystems (Catalog numbers MRN1768-9510282, and MHS1010-99823026, respectively). The sequence of the human protein was mutated to insert a threonine after residue 37, and to introduce a N39D mutation.
(§2) Inhibition of Pi Transport. The rate of phosphate (Pi) uptake into HEK293 cells was measured using a modification of the method described by Mohrmann et al. (Mohrmann, I., Mohrmann, M., Biber, J., and Murer, H. (1986) Am. J. Phys. 250(3 Pt 1):G323-30.) Transfected HEK293 cells were treated with a pharmacological agent to minimize endogenous PiT-mediated phosphate transport activity, such that the only remaining sodium-dependent phosphate transport activity is that which was bestowed by introduction of the NaP2b genes.
(§3) Cells were seeded into 96-well plates at 25,000 cells/well and cultured overnight. Lipofectamine 2000 (Invitrogen) was used to introduce the NaP2b cDNA, and the cells were allowed to approach confluence during a second overnight incubation. […] Cells were then overlayed with either choline uptake buffer or sodium uptake buffer (14 mM Tris, 137 mM sodium chloride, 5.4 mM KCl, 2.8 mM CaCl2, 1.2 mM MgSO4, 100 uM KH2PO4, PiT-silencing agent, 1 mg/mL Bovine Serum Albumin, pH 7.4) containing 6-9 uCi/mL ^33P orthophosphoric acid (Perkin Elmer) and test compound. Each compound was tested at twelve concentrations ranging from 0.1 nM to 30 uM. Assays were run in duplicate.
(§4) After incubation for 3-30 minutes at room temperature, assay mixtures were removed, and the cells were washed twice with ice cold stop solution (137 mM sodium chloride, 14 mM Tris, pH 7.4). Cells were lysed by addition of 20 μL 0.1% Tween 80 followed by 100 μL scintillation fluid, and counted using a TopCount (Perkin Elmer).
(§5) pIC50 (the negative log of the IC50) values of the test compounds were calculated using GraphPad Prism.

A further data set concerns the target T2, rat NaP2b (SLC34A2) (Rattus norvegicus, UniProt Q9JJ09).
T2 construct: host or cells: HEK293
T2 sequence (Q9JJ09 1-695): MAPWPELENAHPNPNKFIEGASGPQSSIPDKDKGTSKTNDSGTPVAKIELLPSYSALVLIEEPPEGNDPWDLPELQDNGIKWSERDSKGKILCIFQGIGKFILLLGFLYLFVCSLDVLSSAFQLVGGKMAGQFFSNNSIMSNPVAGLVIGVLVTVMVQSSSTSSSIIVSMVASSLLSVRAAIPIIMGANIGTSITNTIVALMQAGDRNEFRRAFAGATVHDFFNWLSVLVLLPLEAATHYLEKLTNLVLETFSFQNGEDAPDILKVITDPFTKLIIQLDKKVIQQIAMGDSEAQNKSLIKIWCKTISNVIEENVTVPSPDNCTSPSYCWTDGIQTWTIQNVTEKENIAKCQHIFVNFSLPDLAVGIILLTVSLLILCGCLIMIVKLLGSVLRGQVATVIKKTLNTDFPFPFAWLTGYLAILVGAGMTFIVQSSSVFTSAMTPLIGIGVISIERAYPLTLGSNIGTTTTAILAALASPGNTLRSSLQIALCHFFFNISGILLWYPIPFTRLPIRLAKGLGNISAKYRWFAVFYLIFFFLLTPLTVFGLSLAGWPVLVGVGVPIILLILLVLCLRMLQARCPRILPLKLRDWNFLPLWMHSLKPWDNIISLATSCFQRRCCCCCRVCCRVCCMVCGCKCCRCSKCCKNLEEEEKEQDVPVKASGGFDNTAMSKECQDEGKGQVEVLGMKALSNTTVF
The description is as above. The format is cell-based. The following applies: 100 uM KH2PO4, PiT-silencing agent; for IC50: read-out: pIC50 range for rat Nap2b (converted). How it is done: as §1, §2, §3, §4, §5

A further data set relates to NaPi2b. The data set is described as follows: Competition with phosphate: uptake assay repeated at 2.1 vs 0.1 mM phosphate. The format is cell-based. The following applies: potency for inhibition of NaPi2b at 2.1 vs 0.1 mM phosphate. The source says:
In certain preferred embodiments, the phosphate transport inhibitors of the present invention are not competitive inhibitors with respect to phosphate of Na/phosphate co-transport. In certain other preferred embodiments, the phosphate transport inhibitors of the invention are non-competitive inhibitors. Non-competitive inhibitors maintain their degree of inhibition irrespective of the local phosphate concentration. This feature is an important aspect in providing an efficient blockade of intestinal transport in postprandial state, where the local concentration of dietary phosphate can attain concentration as high as 10 mM. It is believed that competitive inhibitors are too sensitive to local phosphate concentration and unable to block phosphate uptake following a high phosphorus meal. Various methods are available for determining whether a phosphate transport inhibitor is non-competitive or competitive. For example, a phosphate uptake assay can be performed and the IC50 values for a compound at different phosphate concentrations can be determined (e.g., “Enzyme kinetics”, I. Segel, 1975, John-Wiley & Sons, p. 123). IC50 values for non-competitive inhibitors will remain the same or similar with respect to the phosphate concentration, whereas IC50 values for competitive inhibitors will increase (i.e. lose potency) as phosphate concentration increases.
To ascertain if an inhibitor was competitive for binding with phosphate, the procedure was repeated, but raising the concentration of the substrate in the assay mixture from 0.1 to 2.1 mM phosphate.

Data set [1] is described as follows: Determination of compound Cmax and AUC after oral gavage. The format is in vivo, Sprague-Dawley rats. To be noted: Sprague-Dawley, rat plasma, sampling 0.5-4 h. How it is done:
Sprague-Dawley rats were orally gavaged with test article at a nominal dose of 2.5 or 10 mg/kg and blood was collected at 0.5, 1, 2 and 4 h. Blood samples were processed to plasma using K2EDTA as an anticoagulant. Plasma samples were treated with acetonitrile containing an internal standard, precipitated proteins removed by centrifugation. Supernatants were analyzed by LC-MS/MS and compound concentrations were determined by interpolated from a standard curve prepared in plasma. All compounds were orally dosed at the dosage shown, and pharmacokinetic parameters determined

Data set [2] in a line: Fecal recovery of orally administered compounds. The format is in vivo, Sprague-Dawley rats. To be noted: rats, oral gavage, feces 0-48 hr after dosing. The procedure: Quantitative determination of test compound level in feces after oral gavage was performed using the same set of animals used to determine test compound concentration in plasma (Example 30). The animals were kept in metabolic cages and feces were collected from the time of dosing until 48 hr after dosing. Upon collection, feces was dried by lyophilization and ground to a visually homogenous powder. Duplicate samples of ground feces from each individual animal were weighed out and extracted using organic solvent. Extracted samples were then diluted into mobile phase and test compound levels were quantitatively determined by LC-MS/MS analysis as described in “Example 30” except that the standard curve was prepared in a feces matrix. Extraction conditions were not optimized for individual compounds, and thus may represent a minimal level of recovery.

Data set [3] can be described thus: Stability in simulated gastric and intestinal fluid. The format is in vitro ADME. To be noted: 6 hr, 1-20 μM. The procedure: Test compounds were incubated at 1-20 μM in simulated gastric fluid (SGF; standard USP solution with 3 mg/mL pepsin) or simulated intestinal fluid (SIF; standard USP solution with 3 mg/mL pancreatin) for 3 hr or 6 hr. HPLC-UV or HPLC-MS were used to determine test compound levels using peak area %. Results (Table 5) were reported as the percentage of test compound remaining after incubation in a given condition relative to test compound present at t=0 in the same condition.

Where [4] appears, read: nominal 2.5 mg/kg (actual 1.9 mg/kg).
Where [5] appears, read: nominal 10 mg/kg (actual 7.6-11 mg/kg).

`CN(CCN1CCOCC1)C(=O)c1cccc(C(=O)Nc2ccc(N3CCCCC3)cc2C(=O)Nc2nc(-c3cccc(C(F)(F)F)c3)n[nH]2)c1` [Example 1, N1-Methyl-N1-(2-morpholinoethyl)-N3-(4-(piperidin-1-yl)-2-((3-(3-(trifluoromethyl)phenyl)-1H-1,2,4-triazol-5-yl)carbamoyl)phenyl)isophthalamide]: the IC50 at human NaP2b (SLC34A2) and on rat NaP2b (SLC34A2) was < 1000 nM throughout.

On to `CN(CCOCCOCCOCCC(=O)O)Cc1cccc(C(=O)Nc2ccc(N3CCCCC3)cc2C(=O)Nc2ccn(-c3cccc(C(F)(F)F)c3)n2)c1` [Example 17, 2-Methyl-1-(3-((4-(piperidin-1-yl)-2-((1-(3-(trifluoromethyl)phenyl)-1H-pyrazol-3-yl)carbamoyl)phenyl)carbamoyl)phenyl)-5,8,11-trioxa-2-azatetradecan-14-oic acid], for which the IC50 on human NaP2b (SLC34A2) and on rat NaP2b (SLC34A2) was 1000 to 7940 nM throughout.

For `O=C(O)c1cccc(SCc2cccc(C(=O)Nc3ccc(N4CCCCC4)cc3C(=O)Nc3ccn(-c4cccc(C(F)(F)F)c4)n3)c2)c1` [Example 18, 3-((3-((4-(Piperidin-1-yl)-2-((1-(3-(trifluoromethyl)phenyl)-1H-pyrazol-3-yl)carbamoyl)phenyl)carbamoyl)benzyl)thio)benzoic acid], on rat NaP2b (SLC34A2), the IC50 is 1000 to 7940 nM. Moreover, the “Competitive with respect to Pi?” value in the data set on NaPi2b is listed as “No”. Further, the AUC in data set [1] (setting [4]) amounted to 2130 ng·h/mL; in data set [1] (setting [5]), 6050 ng·h/mL. Also, the Cmax in data set [1] (setting [4]) was 678 ng/mL; in data set [1] (setting [5]), 1820 ng/mL. In addition, the figures for the “% recovered in feces” value in data set [2] (dosed at 1.9 mg/kg) and in data set [2] (setting [5]) were 12% and 60%, respectively.

As to `O=C(O)Cc1cccc(SCc2cccc(C(=O)Nc3ccc(N4CCCCC4)cc3C(=O)Nc3ccn(-c4cccc(C(F)(F)F)c4)n3)c2)c1` [Example 23, 2-(3-((3-((4-(Piperidin-1-yl)-2-((1-(3-(trifluoromethyl)phenyl)-1H-pyrazol-3-yl)carbamoyl)phenyl)carbamoyl)benzyl)thio)phenyl)acetic acid], the IC50 on human NaP2b (SLC34A2) and at rat NaP2b (SLC34A2) was < 1000 nM each time.

As to `O=C(O)CCOCCOCCOCCNC(=O)c1cccc(C(=O)Nc2ccc(Cl)cc2C(=O)Nc2ccn(-c3cccc(C(F)(F)F)c3)n2)c1` [Example 25, 1-(3-((4-chloro-2-((1-(3-(trifluoromethyl)phenyl)-1H-pyrazol-3-yl)-carbamoyl)phenyl)carbamoyl)phenyl)-1-oxo-5,8,11-trioxa-2-azatetradecan-14-oic acid], the “% remaining, SGF” value in data set [3] (simulated gastric fluid with 3 mg/mL pepsin) is recorded as 58%. Also, in data set [3] (simulated intestinal fluid with 3 mg/mL pancreatin), the “% remaining, SIF” value was 95%. Further, the AUC in data set [1] (setting [5]) was < 3 ng·h/mL. For the same compound, the “% recovered in feces” value in data set [2] (setting [5]) stood at 17%.

For the compound `O=C(O)P(=O)(O)O` [PFA, reference compound], the “pIC50 range for rat Nap2b” value against rat NaP2b (SLC34A2) was 2-3. Further, the “Competitive with respect to Pi?” value in the data set with NaPi2b is “Yes”.
